Source: PubChem BioAssay (NCI)
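Protocol summary: plate cells (96-well), add compound at 5 concentrations, incubate 48 h, interpolate endpoints linearly. GI50: concentration for 50% inhibition of growth. The concentration for full growth arrest is given as TGI.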

Assays:
Assay in all cases: DTP human tumour cell line panel, 48 h
SK-MEL-5 melanoma = system: SK-MEL-5 melanoma
MALME-3M melanoma = system: MALME-3M melanoma
NCI-H522 lung = system: NCI-H522 lung
SK-OV-3 ovarian = system: SK-OV-3 ovarian
CCRF-CEM leukemia = system: CCRF-CEM leukemia
LOX IMVI melanoma = system: LOX IMVI melanoma
HT29 colon = system: HT29 colon
ACHN renal = system: ACHN renal
SK-MEL-2 melanoma = system: SK-MEL-2 melanoma
NCI-H226 lung = system: NCI-H226 lung

| Compound | TGI (SK-MEL-5 melanoma) | TGI (MALME-3M melanoma) | TGI (NCI-H522 lung) | TGI (SK-OV-3 ovarian) | TGI (CCRF-CEM leukemia) | TGI (LOX IMVI melanoma) | TGI (HT29 colon) | TGI (ACHN renal) | TGI (SK-MEL-2 melanoma) | TGI (NCI-H226 lung) | GI50 (SK-MEL-5 melanoma) | GI50 (MALME-3M melanoma) | GI50 (NCI-H522 lung) | GI50 (SK-OV-3 ovarian) | GI50 (CCRF-CEM leukemia) | GI50 (LOX IMVI melanoma) | GI50 (NCI-H226 lung) | GI50 (HT29 colon) | GI50 (ACHN renal) | GI50 (SK-MEL-2 melanoma) |
| --- | --- | --- | --- | --- | --- | --- | --- | --- | --- | --- | --- | --- | --- | --- | --- | --- | --- | --- | --- | --- |
| N.N.N.O=[N+]([O-])[O-].O=[N+]([O-])[O-].O=[N+]([O-])[O-].O=[N+]([O-])[O-].[Co+3] | > 100 µM | > 100 µM | > 100 µM | > 100 µM | > 100 µM | > 100 µM | > 100 µM | > 100 µM | > 100 µM |  |  |  |  |  |  |  |  |  |  |  |
| COC(=O)C1C(C(=O)OC)N(Cc2ccccc2)C(=O)N1Cc1ccccc1 (stereo not drawn) | > 100 µM | > 100 µM | 96.3 µM | > 100 µM | > 100 µM | > 100 µM | > 100 µM | > 100 µM | > 100 µM | > 100 µM |  |  |  |  |  |  |  |  |  |  |
| CCOC(=O)c1csc(NC(=O)CCN(CC)CC)n1 | > 100 µM |  |  | > 100 µM | 83.3 µM | > 100 µM | 64.6 µM | > 100 µM | > 100 µM | 89 µM |  |  |  |  |  |  |  |  |  |  |
| C#CCCCCC#Cc1ccccc1C(=O)OC | > 100 µM | > 100 µM |  | > 100 µM | 32.4 µM | 33.1 µM | > 100 µM | > 100 µM | > 100 µM | > 100 µM |  |  |  |  |  |  |  |  |  |  |
| CCCc1cc(=O)c2c(C)c3[nH]c4ccc(Cl)cc4c3c(C)c2[nH]1 | 21.4 µM | 23 µM | 4.51 µM |  | 5.83 µM | 3.33 µM | 3.31 µM | 3.71 µM | 14.6 µM | 12.8 µM |  |  |  |  |  |  |  |  |  |  |
| O=C(O)CC/C(=N\Nc1nsc2ccccc12)c1ccccc1 | > 100 µM |  |  |  | 96.7 µM | > 100 µM | > 100 µM | > 100 µM | > 100 µM |  |  |  |  |  |  |  |  |  |  |  |
| C=C(C(=O)C(=O)Oc1ccc(Cl)cc1)C(=O)c1ccc(C)cc1 | > 100 µM | > 100 µM | 40 µM | > 100 µM | > 100 µM | 16.5 µM | > 100 µM | > 100 µM | > 100 µM | > 100 µM |  |  |  |  |  |  |  |  |  |  |
| C/C(CCOC1CCCCO1)=C(\C)[Si](C)(C)C (stereo not drawn) | > 100 µM | > 100 µM | > 100 µM |  | > 100 µM | > 100 µM | > 100 µM | > 100 µM | > 100 µM |  |  |  |  |  |  |  |  |  |  |  |
| CC(C)OP(=O)(OC(C)C)c1c(Nc2ccccc2)n[nH]c1N | > 100 µM | > 100 µM | > 100 µM | > 100 µM | > 100 µM | > 100 µM | > 100 µM | > 100 µM | > 100 µM | > 100 µM |  |  |  |  |  |  |  |  |  |  |
| O=C1C(Cl)=C(N2CCN(C3=C(Cl)C(=O)c4ccccc4C3=O)CC2)C(=O)c2ccccc21 | 3.25 µM | 3.32 µM | 1.83 µM | 28 µM | 0.718 µM | 3.12 µM | 5.27 µM | 3.09 µM | 3.34 µM | 11.8 µM |  |  |  |  |  |  |  |  |  |  |
| COCCOCOc1ccc(OCc2ccccc2)cc1 | > 100 µM | > 100 µM |  | > 100 µM | > 100 µM | > 100 µM | > 100 µM |  | > 100 µM | > 100 µM |  |  |  |  |  |  |  |  |  |  |
| CCN1c2ccccc2-n2c(C)nnc2-c2c1n[nH]c2-c1ccccc1 | 35.3 µM |  | 5.98 µM | > 100 µM | 55.4 µM | 89.2 µM | > 100 µM | > 100 µM | 45.6 µM |  |  |  |  |  |  |  |  |  |  |  |
| CN(C)CCCOc1nc2c(c(=O)n(C)c(=O)n2C)n1C (tested in a mixture with another compound) | 48.6 µM | 27.4 µM | > 100 µM | > 100 µM | > 100 µM | 9.8 µM | > 100 µM | 68.8 µM | > 100 µM | 47.7 µM |  |  |  |  |  |  |  |  |  |  |
| CC1=C(O)C(=O)[C@@H]2O[C@@H]2C1=O | 30.1 µM | 17.2 µM | 4.56 µM | 107 µM | 8.09 µM | 26.8 µM | 36.6 µM |  | 38.1 µM | 37 µM |  |  |  |  |  |  |  |  |  |  |
| C=CCN1C(=O)/C(=C/c2ccccc2)N=C1SC1OC(COC(=O)c2ccccc2)C(OC(=O)c2ccccc2)C1OC(=O)c1ccccc1 (stereo not drawn) | > 100 µM | > 100 µM | 41.5 µM | > 100 µM | 70.4 µM | > 100 µM |  | > 100 µM | > 100 µM | > 100 µM |  |  |  |  |  |  |  |  |  |  |
| COc1ccc2[nH]c(O)c(/C=c3/cc4c(c(-c5cc(OC)c(OC)c(OC)c5)n3)=Nc3ccccc3-4)c2c1 | 77.8 µM | > 100 µM | > 100 µM | > 100 µM | 12.4 µM | > 100 µM | 7.05 µM | > 100 µM | > 100 µM | > 100 µM | 2.47 µM | 63.6 µM | 5.03 µM | > 100 µM | 1.41 µM | 7.54 µM | > 100 µM | 2.41 µM | 7.47 µM | 15.9 µM |
